The structures appear in SMILES notation. Where two headings read alike, the source gives them in different places. Where a SMILES comes first, the peptide text is derived from it. Bridges are numbered along the chain shown (N, C = ends). [ ]: non-standard residue; d: D form. ξ: configuration not given here. Phe(4-F) = N[C@@H](Cc1ccc(F)cc1)C(=O)O; NMeIle(3ξ) = CCC(C)[C@H](NC)C(=O)O; NMeF = CN[C@@H](Cc1ccccc1)C(=O)O; NMeL = CN[C@@H](CC(C)C)C(=O)O; NMeNle = CCCC[C@H](NC)C(=O)O; NMeV = CN[C@H](C(=O)O)C(C)C; dPip = O=C(O)[C@H]1CCCCN1; Orn = NCCC[C@H](N)C(=O)O

15 molecules from patent US10538555B2, “Macrocyclic inhibitors of the PD-1/PD-L1 and CD80(B7-1)/PD-L1 protein/protein interactions” (BRISTOL-MYERS SQUIBB COMPANY, priority 2014, dated 2020) can be followed below.

For the experiment, the target named is T1, Human PD-L1/PD-1 (Homo sapiens, UniProt Q9NZQ7).
T1 construct: TVMV protease cleavage site (C); made in house; host or cells: HEK293T cells
T1 sequence (Q9NZQ7 with tags, fused parts or gaps): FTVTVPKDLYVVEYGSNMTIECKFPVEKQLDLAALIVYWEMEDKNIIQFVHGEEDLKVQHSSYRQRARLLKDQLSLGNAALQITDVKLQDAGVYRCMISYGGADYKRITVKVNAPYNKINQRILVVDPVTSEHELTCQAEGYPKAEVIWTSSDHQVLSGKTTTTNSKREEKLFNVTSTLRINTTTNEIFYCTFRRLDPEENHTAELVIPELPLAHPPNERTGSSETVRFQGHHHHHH
Briefly: HTRF Human PD-L1/PD-1 binding assay (PD-1-Ig/PD-L1-His). The note with it: PD-L1-His 10 nM, PD-1-Ig 20 nM. In outline:
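HTRF read-out (665/620 nm ratio) after 30 min equilibration with Eu-cryptate anti-Ig mAb (1 nM) and APC anti-His mAb (20 nM). Peptides preincubated 15 min with PD-L1-His (10 nM), then PD-1-Ig (20 nM) added for 15 min.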
A general note: In TR-FRET formats the signal depends on donor and acceptor labels being close together.

The mark [1] stands for this setting: class symbol, read-out: HTRF Human PD-L1/PD-1 Binding Assay IC50 Range.

As to `CCCC[C@H]1C(=O)N2CCC[C@@H]2C(=O)N[C@@H](CC(=O)O)C(=O)N[C@@H](C(C)C)C(=O)N(C)[C@@H](C(C)C)C(=O)N[C@@H](Cc2ccc(O)cc2)C(=O)N2CCCC[C@@H]2C(=O)N[C@@H](Cc2c[nH]c3ccccc23)C(=O)N[C@@H](Cc2ccc(O)cc2)C(=O)N[C@@H](CCCN)C(=O)N[C@H](C(=O)NCC(N)=O)CSCC(=O)N[C@@H](Cc2ccc(F)cc2)C(=O)N(C)[C@@H](Cc2ccccc2)C(=O)N1C` [Example 9244] ({CH2CO}-[Phe(4-F)][NMeF][NMeNle][dP]DV[NMeV]Y[dPip]WY[Orn]CG-NH2; thioether N-13), under setting [1], the IC50 is 1000 to 10000 nM. As to `CCCC[C@H]1C(=O)N2CCC[C@@H]2C(=O)N[C@@H](CC(=O)O)C(=O)N[C@@H](C(C)C)C(=O)N(C)[C@@H](C(C)C)C(=O)N[C@@H](CCC(N)=O)C(=O)N2CCC[C@@H]2C(=O)N[C@@H](Cc2c[nH]c3ccccc23)C(=O)N[C@@H](Cc2ccc(O)cc2)C(=O)N[C@@H](CC(C)C)C(=O)N[C@H](C(=O)NCC(N)=O)CSCC(=O)N[C@@H](Cc2ccc(F)cc2)C(=O)N(C)[C@@H](Cc2ccccc2)C(=O)N1C` [Example 9245] ({CH2CO}-[Phe(4-F)][NMeF][NMeNle][dP]DV[NMeV]Q[dP]WYLCG-NH2; thioether N-13), the IC50 under setting [1] was 1000 to 10000 nM. Take `CCCC[C@H]1C(=O)N2CCC[C@@H]2C(=O)N[C@@H](CC(=O)O)C(=O)N[C@@H](C(C)C)C(=O)N(C)[C@@H](C(C)C)C(=O)N[C@@H](CCC(N)=O)C(=O)N2CCCC[C@@H]2C(=O)N[C@@H](Cc2c[nH]c3ccccc23)C(=O)N[C@@H](Cc2ccc(O)cc2)C(=O)N[C@@H](CC(C)C)C(=O)N[C@H](C(=O)NCC(N)=O)CSCC(=O)N[C@@H](Cc2ccc(F)cc2)C(=O)N(C)[C@@H](Cc2ccccc2)C(=O)N1C` [Example 9246] ({CH2CO}-[Phe(4-F)][NMeF][NMeNle][dP]DV[NMeV]Q[dPip]WYLCG-NH2; thioether N-13): the IC50 under setting [1] was 1000 to 10000 nM. For the molecule `CCCC[C@H]1C(=O)N2CCC[C@@H]2C(=O)N[C@@H](CC(=O)O)C(=O)N[C@@H](C(C)C)C(=O)N(C)[C@@H](C(C)C)C(=O)N[C@@H](CCC(N)=O)C(=O)N2CCC[C@@H]2C(=O)N[C@@H](Cc2c[nH]c3ccccc23)C(=O)N[C@@H](Cc2ccc(O)cc2)C(=O)N[C@@H](CCCN)C(=O)N[C@H](C(=O)NCC(N)=O)CSCC(=O)N[C@@H](Cc2ccc(F)cc2)C(=O)N(C)[C@@H](Cc2ccccc2)C(=O)N1C` [Example 9247] ({CH2CO}-[Phe(4-F)][NMeF][NMeNle][dP]DV[NMeV]Q[dP]WY[Orn]CG-NH2; thioether N-13), the IC50 under setting [1] lay within 1000 to 10000 nM. As for `CCCC[C@H]1C(=O)N2CCC[C@@H]2C(=O)N[C@@H](CC(=O)O)C(=O)N[C@@H](C(C)C)C(=O)N(C)[C@@H](C(C)C)C(=O)N[C@@H](CCC(N)=O)C(=O)N2CCCC[C@@H]2C(=O)N[C@@H](Cc2c[nH]c3ccccc23)C(=O)N[C@@H](Cc2ccc(O)cc2)C(=O)N[C@@H](CCCN)C(=O)N[C@H](C(=O)NCC(N)=O)CSCC(=O)N[C@@H](Cc2ccc(F)cc2)C(=O)N(C)[C@@H](Cc2ccccc2)C(=O)N1C` [Example 9248] ({CH2CO}-[Phe(4-F)][NMeF][NMeNle][dP]DV[NMeV]Q[dPip]WY[Orn]CG-NH2; thioether N-13), the IC50 under setting [1] is 1000 to 10000 nM. On to `CCCC[C@H]1C(=O)N2CCC[C@@H]2C(=O)N[C@@H](CC(=O)O)C(=O)N[C@@H](C(C)C)C(=O)N(C)[C@@H](CC(C)C)C(=O)N[C@@H](Cc2ccc(O)cc2)C(=O)N2CCC[C@@H]2C(=O)N[C@@H](Cc2c[nH]c3ccccc23)C(=O)N[C@@H](Cc2ccc(O)cc2)C(=O)N[C@@H](CC(C)C)C(=O)N[C@H](C(=O)NCC(N)=O)CSCC(=O)N[C@@H](Cc2ccc(F)cc2)C(=O)N(C)[C@@H](Cc2ccccc2)C(=O)N1C` [Example 9249] ({CH2CO}-[Phe(4-F)][NMeF][NMeNle][dP]DV[NMeL]Y[dP]WYLCG-NH2; thioether N-13), for which the IC50 under setting [1] lay in the range of 100 to 990 nM.

Take `CCCC[C@H]1C(=O)N2CCC[C@@H]2C(=O)N[C@@H](CC(=O)O)C(=O)N[C@@H](C(C)C)C(=O)N(C)[C@@H](CC(C)C)C(=O)N[C@@H](Cc2ccc(O)cc2)C(=O)N2CCCC[C@@H]2C(=O)N[C@@H](Cc2c[nH]c3ccccc23)C(=O)N[C@@H](Cc2ccc(O)cc2)C(=O)N[C@@H](CC(C)C)C(=O)N[C@H](C(=O)NCC(N)=O)CSCC(=O)N[C@@H](Cc2ccc(F)cc2)C(=O)N(C)[C@@H](Cc2ccccc2)C(=O)N1C` [Example 9250] ({CH2CO}-[Phe(4-F)][NMeF][NMeNle][dP]DV[NMeL]Y[dPip]WYLCG-NH2; thioether N-13): the IC50 under setting [1] was in the range of 1000 to 10000 nM. In the case of `CCCC[C@H]1C(=O)N2CCC[C@@H]2C(=O)N[C@@H](CC(=O)O)C(=O)N[C@@H](C(C)C)C(=O)N(C)[C@@H](CC(C)C)C(=O)N[C@@H](Cc2ccc(O)cc2)C(=O)N2CCC[C@@H]2C(=O)N[C@@H](Cc2c[nH]c3ccccc23)C(=O)N[C@@H](Cc2ccc(O)cc2)C(=O)N[C@@H](CCCN)C(=O)N[C@H](C(=O)NCC(N)=O)CSCC(=O)N[C@@H](Cc2ccc(F)cc2)C(=O)N(C)[C@@H](Cc2ccccc2)C(=O)N1C` [Example 9251] ({CH2CO}-[Phe(4-F)][NMeF][NMeNle][dP]DV[NMeL]Y[dP]WY[Orn]CG-NH2; thioether N-13), the IC50 under setting [1] is 100 to 990 nM. Consider `CCCC[C@H]1C(=O)N2CCC[C@@H]2C(=O)N[C@@H](CC(=O)O)C(=O)N[C@@H](C(C)C)C(=O)N(C)[C@@H](CC(C)C)C(=O)N[C@@H](CCC(N)=O)C(=O)N2CCC[C@@H]2C(=O)N[C@@H](Cc2c[nH]c3ccccc23)C(=O)N[C@@H](Cc2ccc(O)cc2)C(=O)N[C@@H](CC(C)C)C(=O)N[C@H](C(=O)NCC(N)=O)CSCC(=O)N[C@@H](Cc2ccc(F)cc2)C(=O)N(C)[C@@H](Cc2ccccc2)C(=O)N1C` [Example 9253] ({CH2CO}-[Phe(4-F)][NMeF][NMeNle][dP]DV[NMeL]Q[dP]WYLCG-NH2; thioether N-13), for which the IC50 under setting [1] was in the range of 1000 to 10000 nM. As for `CCCC[C@H]1C(=O)N2CCC[C@@H]2C(=O)N[C@@H](CC(=O)O)C(=O)N[C@@H](C(C)C)C(=O)N(C)[C@@H](CC(C)C)C(=O)N[C@@H](CCC(N)=O)C(=O)N2CCCC[C@@H]2C(=O)N[C@@H](Cc2c[nH]c3ccccc23)C(=O)N[C@@H](Cc2ccc(O)cc2)C(=O)N[C@@H](CC(C)C)C(=O)N[C@H](C(=O)NCC(N)=O)CSCC(=O)N[C@@H](Cc2ccc(F)cc2)C(=O)N(C)[C@@H](Cc2ccccc2)C(=O)N1C` [Example 9254] ({CH2CO}-[Phe(4-F)][NMeF][NMeNle][dP]DV[NMeL]Q[dPip]WYLCG-NH2; thioether N-13), the IC50 under setting [1] fell in the range of 1000 to 10000 nM. Still for that read-out and setting: the figure for `CCCC[C@H]1C(=O)N2CCC[C@@H]2C(=O)N[C@@H](CC(=O)O)C(=O)N[C@@H](C(C)C)C(=O)N(C)[C@@H](CC(C)C)C(=O)N[C@@H](CCC(N)=O)C(=O)N2CCC[C@@H]2C(=O)N[C@@H](Cc2c[nH]c3ccccc23)C(=O)N[C@@H](Cc2ccc(O)cc2)C(=O)N[C@@H](CCCN)C(=O)N[C@H](C(=O)NCC(N)=O)CSCC(=O)N[C@@H](Cc2ccc(F)cc2)C(=O)N(C)[C@@H](Cc2ccccc2)C(=O)N1C` [Example 9255] ({CH2CO}-[Phe(4-F)][NMeF][NMeNle][dP]DV[NMeL]Q[dP]WY[Orn]CG-NH2; thioether N-13) is 1000 to 10000 nM. Same read-out and setting: the figure for `CCCC[C@H]1C(=O)N2CCC[C@@H]2C(=O)N[C@@H](CC(=O)O)C(=O)N[C@@H](C(C)C)C(=O)N(C)[C@@H](CC(C)C)C(=O)N[C@@H](CCC(N)=O)C(=O)N2CCCC[C@@H]2C(=O)N[C@@H](Cc2c[nH]c3ccccc23)C(=O)N[C@@H](Cc2ccc(O)cc2)C(=O)N[C@@H](CCCN)C(=O)N[C@H](C(=O)NCC(N)=O)CSCC(=O)N[C@@H](Cc2ccc(F)cc2)C(=O)N(C)[C@@H](Cc2ccccc2)C(=O)N1C` [Example 9256] ({CH2CO}-[Phe(4-F)][NMeF][NMeNle][dP]DV[NMeL]Q[dPip]WY[Orn]CG-NH2; thioether N-13) is 1000 to 10000 nM; for `CCCC[C@H]1C(=O)N2CCC[C@@H]2C(=O)N[C@@H](CC(=O)O)C(=O)N[C@@H](C(C)C)C(=O)N(C)[C@@H](C(C)CC)C(=O)N[C@@H](Cc2ccc(O)cc2)C(=O)N2CCC[C@@H]2C(=O)N[C@@H](Cc2c[nH]c3ccccc23)C(=O)N[C@@H](Cc2ccc(O)cc2)C(=O)N[C@@H](CC(C)C)C(=O)N[C@H](C(=O)NCC(N)=O)CSCC(=O)N[C@@H](Cc2ccc(F)cc2)C(=O)N(C)[C@@H](Cc2ccccc2)C(=O)N1C` (stereo partly drawn) [Example 9257] ({CH2CO}-[Phe(4-F)][NMeF][NMeNle][dP]DV[NMeIle(3ξ)]Y[dP]WYLCG-NH2; thioether N-13) it is 1000 to 10000 nM. Consider `CCCC[C@H]1C(=O)N2CCC[C@@H]2C(=O)N[C@@H](CC(=O)O)C(=O)N[C@@H](C(C)C)C(=O)N(C)[C@@H](C(C)CC)C(=O)N[C@@H](Cc2ccc(O)cc2)C(=O)N2CCCC[C@@H]2C(=O)N[C@@H](Cc2c[nH]c3ccccc23)C(=O)N[C@@H](Cc2ccc(O)cc2)C(=O)N[C@@H](CC(C)C)C(=O)N[C@H](C(=O)NCC(N)=O)CSCC(=O)N[C@@H](Cc2ccc(F)cc2)C(=O)N(C)[C@@H](Cc2ccccc2)C(=O)N1C` (stereo partly drawn) [Example 9258] ({CH2CO}-[Phe(4-F)][NMeF][NMeNle][dP]DV[NMeIle(3ξ)]Y[dPip]WYLCG-NH2; thioether N-13), for which the IC50 (read-out: HTRF Human PD-L1/PD-1 Binding Assay IC50) is 7280 nM. Turning to `CCCC[C@H]1C(=O)N2CCC[C@@H]2C(=O)N[C@@H](CC(=O)O)C(=O)N[C@@H](C(C)C)C(=O)N(C)[C@@H](C(C)CC)C(=O)N[C@@H](Cc2ccc(O)cc2)C(=O)N2CCCC[C@@H]2C(=O)N[C@@H](Cc2c[nH]c3ccccc23)C(=O)N[C@@H](Cc2ccc(O)cc2)C(=O)N[C@@H](CCCN)C(=O)N[C@H](C(=O)NCC(N)=O)CSCC(=O)N[C@@H](Cc2ccc(F)cc2)C(=O)N(C)[C@@H](Cc2ccccc2)C(=O)N1C` (stereo partly drawn) [Example 9259] ({CH2CO}-[Phe(4-F)][NMeF][NMeNle][dP]DV[NMeIle(3ξ)]Y[dPip]WY[Orn]CG-NH2; thioether N-13), under setting [1], the IC50 was 1000 to 10000 nM.
